≈ marks a conversion by molar mass, not a printed value. Where two headings read alike, the source gives them in different places.
Test system: Enterobacterales
Assay: MIC, broth microdilution, CDC/FDA Antibiotic Resistance Isolate Bank (Example 7, Tables 8, 11, 12)
Type: cell-based
Details: for MIC: read-out: MIC

CC(C)(O/N=C(\C(=O)N[C@@H]1C(=O)N2C(C(=O)[O-])=C(C[N+]3(CCNC(=O)c4ccc(O)c(O)c4Cl)CCCC3)CS[C@H]12)c1csc(N)n1)C(=O)O [Cefiderocol, cefiderocol]
MIC50 (154 strains of Enterobacterales, read-out: MIC50): 0.5 µg/mL (≈ 0.665 µM)
MIC80 (154 strains of Enterobacterales, read-out: MIC80): 1 µg/mL (≈ 1.33 µM)
MIC90 (154 strains of Enterobacterales, read-out: MIC90): 2 µg/mL (≈ 2.66 µM)
MIC (Citrobacter freundii, KUB No. 5654, AR Bank # 157): 1 µg/mL (≈ 1.33 µM)
MIC (Enterobacter cloacae, Enterobacter cloacae KUB No. 5792, AR Bank #448): 2 µg/mL (≈ 2.66 µM)
MIC (Enterobacter cloacae, Enterobacter cloacae KUB No. 5807, AR Bank #501): 1 µg/mL (≈ 1.33 µM)
MIC (Enterobacter cloacae, Enterobacter cloacae KUB No. 5808, AR Bank #502): 1 µg/mL (≈ 1.33 µM)
MIC (Enterobacter cloacae, Enterobacter cloacae complex, KUB No. 5661, AR Bank # 164): 0.5 µg/mL (≈ 0.665 µM)
MIC (Enterobacter cloacae, Enterobacter cloacae group, KUB No. 5629, AR Bank # 132): 0.5 µg/mL (≈ 0.665 µM)
MIC (Enterobacter cloacae, KUB No. 5535, AR Bank# 38): 0.5 µg/mL (≈ 0.665 µM)
MIC (Enterobacter cloacae, KUB No. 5547, AR Bank# 50): 2 µg/mL (≈ 2.66 µM)
MIC (Enterobacter cloacae, KUB No. 5550, AR Bank# 53): 0.12 µg/mL (≈ 0.16 µM)
MIC (Enterobacter cloacae, KUB No. 5557, AR Bank# 60): 4 µg/mL (≈ 5.32 µM)
MIC (Enterobacter cloacae, KUB No. 5562, AR Bank # 65): 0.25 µg/mL (≈ 0.332 µM)
MIC (Enterobacter cloacae, KUB No. 5569, AR Bank # 72): 0.25 µg/mL (≈ 0.332 µM)
MIC (Enterobacter cloacae, KUB No. 5570, AR Bank # 73): 0.25 µg/mL (≈ 0.332 µM)
MIC (Enterobacter cloacae, KUB No. 5590, AR Bank # 93): 0.25 µg/mL (≈ 0.332 µM)
MIC (Enterobacter cloacae, KUB No. 5660, AR Bank # 163): 0.25 µg/mL (≈ 0.332 µM)
MIC (Enterobacter cloacae, KUB No. 5761, AR Bank # 365): 0.25 µg/mL (≈ 0.332 µM)
MIC (Enterobacter cloacae, KUB No. 5762, AR Bank # 366): 0.25 µg/mL (≈ 0.332 µM)
MIC (Enterobacter cloacae, KUB No. 5763, AR Bank # 367): 1 µg/mL (≈ 1.33 µM)
MIC (Enterobacter cloacae, KUB No. 5778, AR Bank # 432): 4 µg/mL (≈ 5.32 µM)
MIC (Enterobacter cloaccae, KUB No. 5651, AR Bank # 154): 4 µg/mL (≈ 5.32 µM)
MIC (Enterobacter clooreae, KUB No. 5633, AR Bank # 136): 0.25 µg/mL (≈ 0.332 µM)
MIC (Escherichia coli, Escherichia coli KUB No. 5783, AR Bank #437): 0.25 µg/mL (≈ 0.332 µM)
MIC (Escherichia coli, Escherichia coli KUB No. 5794, AR Bank #450): 0.25 µg/mL (≈ 0.332 µM)
MIC (Escherichia coli, Escherichia coli KUB No. 5795, AR Bank #451): 0.5 µg/mL (≈ 0.665 µM)
MIC (Escherichia coli, Escherichia coli KUB No. 5796, AR Bank #452): 1 µg/mL (≈ 1.33 µM)
MIC (Escherichia coli, Escherichia coli KUB No. 5803, AR Bank #861): 2 µg/mL (≈ 2.66 µM)
MIC (Escherichia coli, KUB No. 5558, AR Bank # 61): ≤ 0.06 µg/mL
MIC (Escherichia coli, KUB No. 5564, AR Bank # 67): 0.12 µg/mL (≈ 0.16 µM)
MIC (Escherichia coli, KUB No. 5566, AR Bank # 69): 1 µg/mL (≈ 1.33 µM)
MIC (Escherichia coli, KUB No. 5574, AR Bank # 77): ≤ 0.06 µg/mL
MIC (Escherichia coli, KUB No. 5578, AR Bank # 81): 0.25 µg/mL (≈ 0.332 µM)
MIC (Escherichia coli, KUB No. 5581, AR Bank # 84): 0.5 µg/mL (≈ 0.665 µM)
MIC (Escherichia coli, KUB No. 5582, AR Bank # 85): 0.12 µg/mL (≈ 0.16 µM)
MIC (Escherichia coli, KUB No. 5583, AR Bank # 86): 0.12 µg/mL (≈ 0.16 µM)
MIC (Escherichia coli, KUB No. 5586, AR Bank # 89): ≤ 0.06 µg/mL
MIC (Escherichia coli, KUB No. 5601, AR Bank # 104): 1 µg/mL (≈ 1.33 µM)
MIC (Escherichia coli, KUB No. 5611, AR Bank # 114): 0.25 µg/mL (≈ 0.332 µM)
MIC (Escherichia coli, KUB No. 5615, AR Bank # 118): 2 µg/mL (≈ 2.66 µM)
MIC (Escherichia coli, KUB No. 5616, AR Bank # 119): 0.5 µg/mL (≈ 0.665 µM)
MIC (Escherichia coli, KUB No. 5625, AR Bank # 128): 2 µg/mL (≈ 2.66 µM)
MIC (Escherichia coli, KUB No. 5634, AR Bank # 137): 2 µg/mL (≈ 2.66 µM)
MIC (Escherichia coli, KUB No. 5646, AR Bank # 149): 16 µg/mL (≈ 21.3 µM)
MIC (Escherichia coli, KUB No. 5647, AR Bank # 150): 4 µg/mL (≈ 5.32 µM)
MIC (Escherichia coli, KUB No. 5648, AR Bank # 151): 4 µg/mL (≈ 5.32 µM)
MIC (Escherichia coli, KUB No. 5659, AR Bank # 162): 8 µg/mL (≈ 10.6 µM)
MIC (Escherichia coli, KUB No. 5764, AR Bank # 368): ≤ 0.06 µg/mL
MIC (Escherichia coli, KUB No. 5765, AR Bank # 369): 0.25 µg/mL (≈ 0.332 µM)
MIC (Escherichia coli, KUB No. 5766, AR Bank # 370): 0.5 µg/mL (≈ 0.665 µM)
MIC (Escherichia coli, KUB No. 5767, AR Bank # 371): 0.5 µg/mL (≈ 0.665 µM)
MIC (Escherichia coli, KUB No. 5768, AR Bank # 372): 1 µg/mL (≈ 1.33 µM)
